In patent US8288409B2, “Quinolizidinone M1 receptor positive allosteric modulators” (Merck Sharp & Dohme Corp., priority 2008, dated 2012) one finds EC50 data, which are given here for nine molecules.

For this test, the target named is T1, acetylcholine muscarinic M1 receptor (Homo sapiens, UniProt P11229).
T1 construct: expressed in transfected cells; host or cells: CHOnfat cells (CHO; also called CHOK1/hM1)
T1 sequence (P11229 1-460): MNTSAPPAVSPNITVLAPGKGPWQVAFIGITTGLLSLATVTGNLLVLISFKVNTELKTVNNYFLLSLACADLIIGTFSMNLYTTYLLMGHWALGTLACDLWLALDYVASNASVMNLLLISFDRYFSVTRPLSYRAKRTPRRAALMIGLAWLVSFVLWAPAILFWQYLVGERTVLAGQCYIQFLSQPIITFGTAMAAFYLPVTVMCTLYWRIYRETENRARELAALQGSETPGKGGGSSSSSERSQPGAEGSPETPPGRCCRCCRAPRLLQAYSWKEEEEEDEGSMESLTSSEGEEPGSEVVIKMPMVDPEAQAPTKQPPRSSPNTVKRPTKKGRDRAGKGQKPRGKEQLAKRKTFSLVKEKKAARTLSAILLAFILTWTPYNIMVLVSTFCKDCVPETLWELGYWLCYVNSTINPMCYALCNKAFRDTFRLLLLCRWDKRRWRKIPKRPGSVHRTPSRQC
Kind of test: FLIPR intracellular calcium assay for M1 receptor positive allosteric modulator activity. The format is cell-based. How it is done: The assay studies the effect of one or several concentrations of test compounds on basal or acetylcholine-stimulated Ca^2+ levels using FLIPR.
Compounds are prepared and subjected to a preincubation period of 4 min. Thereafter, a single EC20 concentration of acetylcholine is added to each well (3 nM final). The intracellular Ca^2+ level of each sample is measured and compared to an acetylcholine control to determine any modulatory activity.
Cells: CHOnfat/hM1, hM2, hM3 or hM4 cells are plated 24 hr before the assay at a density of 18,000 cells/well (100 μl) in a 384 well plate. CHOnfat/hM1 and CHOnfat/hM3 Growth Medium: 90% DMEM (Hi Glucose); 10% HI FBS; 2 mM L-glutamine; 0.1 mM NEAA; Pen-Strep; and 1 mg/ml Geneticin, are added. For M2Gqi5CHOnfat and M4Gqi5CHOnfat cells, an additional 600 μg/ml hygromycin is added.
Buffers. […] Dye Loading Buffer: Assay Buffer plus 1% Fetal Bovine Serum and Fluo-4AM/Pluronic Acid Mixture. […] 20% Pluronic Acid Solution stock, with a concentration of 0.04% in Buffer, 0.02% in Assay.
65 μL of 2 mM Fluo-4AM are mixed with 130 of 20% Pluronic Acid. The resulting solution and 650 μL FBS is added to the assay buffer for a total volume of 65 mL. Positive Controls: 4-Br-A23187: 10 mM in DMSO; final concentration 10 μM. Acetylcholine: 10 mM in water, working stock at both 20 μM and 30 μM in assay buffer, final concentration of 10 μM. This is used to check the maximum stimulation of the CHOK1/hM1 cells. 20 μM (2×) acetylcholine is added in the preincubation part of the assay, and the 30 μM (3×) stock is added in the second part. (EC20)Acetylcholine: 10 mM in water, working stock of 9 nM (3×), and final concentration in assay is 3 nM. This is used after the preincubation with test compounds. Addition of the EC20 Acetylcholine to each well with a test compound will ascertain any modulator activity. 24 wells contain 3 nM Acetylcholine alone as a control.
Determining Activity of Putative Compounds:
Four 96-well plates are combined into a 384-well plate using Mosquito Nanolitre Pipetting System by transferring 1 μl of serial diluted compounds to each well, and 1 mM acetylcholine (100× stock concentration) were added as a control. Using Temo, 49 μl assay buffer is added to each well of the 384-well plate right before assay.
In a 96-well Whatman 2 ml Uniplate, 9 nM Acetylcholine (3×) is pipetted into wells corresponding to the screening compounds and into control wells. The 30 μM acetylcholine control (3×) is added into control wells and the 3× agonist plate is transferred into a 384-well plate.
Cells are washed three times with 100 μL of buffer, leaving 30 μL of buffer in each well. Using Multimek, 30 μL of Dye Loading Buffer is added into each well and incubated at 37° C., 5% CO2 for up to one hr.
After 60 min, the cells are washed three times with 100 μL of buffer, leaving 30 μL of buffer in each well. The cell plate, screening plate, and agonist addition plates are placed on the platform in the FLIPR and the door is closed. A signal test to check background fluorescence and basal fluorescence signal is performed. Laser intensity is adjusted if necessary.
4 min of preincubation with the test compounds is provided to determine any agonist activity on the M1 receptor by comparison to the 1 mM acetylcholine control. After preincubation, the EC20 value of acetylcholine (3 nM final) is added to determine any modulator activity.
(In general: Calcium flux is commonly read through the fluorescence of an indicator in the cells.)

Where [1] appears, read: CHOnfat/hM1 cells, 4 min preincubation, then EC20 acetylcholine (3 nM final), intracellular Ca2+ by FLIPR384, read-out: IP Value (inflection point).

Like-named read-outs stand apart in the source and are kept apart here.

On to `O=C(O)c1cc(CN2CCCCC2c2ccncc2)c2ccccn2c1=O` (stereo not drawn) [Example 6], for which the EC50 under setting [1] was determined as 2240 nM.

Consider `Cn1c(C2CCN(Cc3cc(C(=O)O)c(=O)n4ccccc34)CC2)nc2ccccc21` [Example 91, 1-{[4-(1-methyl-1H-benzimidazol-2-yl)piperidin-1-yl]methyl}-4-oxo-4H-quinolizine-3-carboxylic Acid], for which, under setting [1], the EC50 was 30500 nM.

As to `O=C(O)c1cc(CN2CCC(c3ccccc3)CC2)c2ccccn2c1=O` [Example 25], the EC50 is 1340 nM.

Consider `O=C(O)c1cc(CN2CCC(c3ccc(C(F)(F)F)cc3)CC2)c2ccccn2c1=O` [Example 1, 4-oxo-1-({4-[4-(trifluoromethyl)phenyl]piperidin-1-yl}methyl)-4H-quinolizine-3-carboxylic Acid], for which the EC50 under setting [1] came to 548 nM.

For the molecule `O=C(O)c1cc(CN2CCC(c3c[nH]c4ccc(O)cc34)CC2)c2ccccn2c1=O` [Example 83], the EC50 under setting [1] amounted to 277 nM.

For `O=C(O)c1cc(CN2CCC(c3nc4cc(F)ccc4[nH]3)CC2)c2ccccn2c1=O` [Example 86], the EC50 under setting [1] was determined as 42 nM.

Consider `O=C(O)c1cc(CN2CCCCC2c2nc3cc(F)ccc3[nH]2)c2ccccn2c1=O` (stereo not drawn) [Example 14], for which, under setting [1], the EC50 is 508 nM.

As for `O=C(O)c1cc(CN2CCCC(O)C2)c2ccccn2c1=O` (stereo not drawn) [Example 24], the EC50 under setting [1] came out at 8700 nM.

Consider `O=C(O)c1cc(CN2CCC(c3nc4ccccc4[nH]3)CC2)c2ccccn2c1=O` [Example 85], for which the EC50 under setting [1] was 122 nM.
